Earlier results, collected in publication PMC6696021, “Combined Ensemble Docking and Machine Learning in Identification of Therapeutic Agents with Potential Inhibitory Effect on Human CES1” (Molecules, 2019).
pKi: −log10 of the molar value.

Target: CES1
Design: method as in earlier work
Settings: Table S1, bioactivity from ChEMBL database; read-out: Ki_Nanomolar; cited from earlier work

| SMILES | pKi |
| --- | --- |
| O=C(Nc1cccc(C(=O)C(=O)c2ccccn2)c1)c1cccc(Cl)c1 [CHEMBL1630814] | 6.12 |
| CCC(=O)C(=O)c1ccccc1 [CHEMBL1812860] | 5.81 |
| O=C(Cc1ccccc1Nc1c(Cl)cccc1Cl)O[C@@H]1O[C@H](C(=O)O)[C@@H](O)[C@H](O)[C@H]1O [CHEMBL3527338] | 5.36 |
| O=C(CC(=O)c1ccccc1)c1ccccc1 [DIBENZOYLMETHANE] | 4.59 |
| OC(O)(CSCCc1ccccc1)C(F)(F)F [CHEMBL510996] | 5.16 |
| O=C(Nc1cccc(C(=O)C(=O)c2ccccn2)c1)c1ccc(C(F)(F)F)cc1 [CHEMBL1629724] | 6.36 |
| O=C(c1cccs1)C(O)c1cccs1 (centres unmarked) [CHEMBL190660] | 5.51 |
| O=C1C(=O)c2sccc2-c2ccsc21 [CHEMBL398109] | 6.82 |
| CCCCCCCCCCCC[S+]([O-])CC(O)(O)C(F)(F)F (centres unmarked) [CHEMBL463556] | 6.02 |
| O=C1Nc2c(Cl)cccc2C1=O [CHEMBL222190] | 4.94 |
| CCCCCCC(=O)C(=O)CCCCCC [CHEMBL1812857] | 8.32 |
| O=C1Nc2c(ccc(Cl)c2Cl)C1=O [CHEMBL222292] | 5.03 |
| Cc1ccc(NCN2C(=O)C(=O)c3ccccc32)cc1 [CHEMBL222851] | 5.58 |
| O=C1C(=O)N(Cc2ccccc2)c2ccccc21 [CHEMBL115581] | 5.77 |
| O=C(C(=O)C(Br)c1ccccc1)C(Br)c1ccccc1 (centres unmarked) [CHEMBL1812851] | 6.97 |
| O=C1C(=O)N(c2ccccc2)c2ccccc21 [PHENYLISATIN] | 7.64 |
| O=C1C(=O)N(Cc2ccc(Cl)c(Cl)c2)c2ccccc21 [CHEMBL375126] | 7.51 |
| O=C1C(=O)c2c3ccccc3cc3cccc1c23 [CHEMBL235503] | 8.82 |
| CCCCCCCC(=O)C(=O)CCCCCCC [CHEMBL1812858] | 8.12 |
| CCCCCCOCC(O)(O)C(F)(F)F [CHEMBL449475] | 5.78 |
| O=C(C(=O)c1cccc([N+](=O)[O-])c1)c1cccc([N+](=O)[O-])c1 [CHEMBL191796] | 4.74 |
| C=C(C)CN1C(=O)C(=O)c2cc(Br)ccc21 [CHEMBL225169] | 7.18 |

| SMILES | pKi |
| --- | --- |
| Cc1ccc(C(=O)C(=O)c2ccccc2)cc1 [CHEMBL371858] | 6.90 |
| O=C1C=Cc2ccccc2C1=O [1-2-NAPHTHOQUINONE] | 6.03 |
| Cc1coc2c1C(=O)C(=O)c1c-2ccc2c(C)cccc12 [TANSHINONEI] | 4.58 |
| O=C1C(=O)N(CCI)c2ccccc21 [CHEMBL376518] | 6.89 |
| CCCCCCS(=O)(=O)CC(O)(O)C(F)(F)F [CHEMBL449775] | 5.31 |
| O=C(C(=O)c1ccco1)c1ccco1 [CHEMBL371181] | 5.44 |
| CCCCCCCC[S+]([O-])CC(O)(O)C(F)(F)F (centres unmarked) [CHEMBL460806] | 5.13 |
| CCCCC(=O)C(=O)c1ccccc1 [CHEMBL1812862] | 7.58 |
| CCCCCCCCCCCCN1C(=O)C(=O)c2ccccc21 [CHEMBL222644] | 8.00 |
| O=C(C(=O)c1ccc(Br)cc1)c1ccc(Br)cc1 [CHEMBL193228] | 4.18 |
| O=C1C(=O)N(CNc2ccccc2Br)c2ccccc21 [CHEMBL374758] | 4.44 |
| CCCCCCSCC(=O)C(F)(F)F [CHEMBL440542] | 6.77 |
| O=C(C(=O)c1cc(F)c(F)c(F)c1)c1cc(F)c(F)c(F)c1 [CHEMBL193180] | 6.39 |
| COc1ccc(C(=O)C(=O)c2ccc(OC)cc2)cc1 [CHEMBL191513] | 5.47 |
| CC(=O)N1C(=O)C(=O)c2ccccc21 [CHEMBL223001] | 4.44 |
| Cc1ccc(C(=O)Nc2cccc(C(=O)C(=O)c3ccccn3)c2)cc1 [CHEMBL1630810] | 5.99 |
| CCCCCC(=O)C(=O)c1ccccc1 [CHEMBL1812863] | 8.18 |
| O=C1C(=O)N(CNc2ccc(Br)cc2)c2ccccc21 [CHEMBL385132] | 6.24 |
| O=C(C(=O)c1ccc([N+](=O)[O-])cc1)c1ccc([N+](=O)[O-])cc1 [CHEMBL236340] | 5.01 |
| O=C1C(=O)c2ccccc2CCc2ccccc21 [CHEMBL235931] | 5.53 |
| CCCCCCCCCC[S+]([O-])CC(O)(O)C(F)(F)F (centres unmarked) [CHEMBL464002] | 5.58 |
| CCCCCCCCCCCCSCC(=O)C(F)(F)F [CHEMBL270375] | 7.41 |

| SMILES | pKi |
| --- | --- |
| CC(C)C1=Cc2ccc3c(c2C(=O)C1=O)CCCC3(C)C [MILTIRONE] | 5.60 |
| Cc1coc2c1C(=O)C(=O)c1c-2ccc2c1CCCC2(C)C [TANSHINONEIIA] | 5.16 |
| O=C(C(=O)c1ccc(CBr)cc1)c1ccccc1 [CHEMBL192241] | 7.11 |
| O=C(C(=O)c1ccc(Cl)cc1)c1ccc(Cl)cc1 [CHEMBL192139] | 4.60 |
| O=C1Cc2ccccc2C1=O [CHEMBL235288] | 5.28 |
| O=C(C(=O)C1CCCCC1)C1CCCCC1 [CHEMBL235287] | 7.41 |
| COc1ccc(C(=O)C(=O)c2ccccc2)cc1 [CHEMBL192474] | 6.76 |
| O=C1C(=O)c2ccccc2-c2ccccc21 [9-10-PHENANTHRENEQUINONE] | 8.60 |
| O=C1Nc2cc(Cl)c(Cl)cc2C1=O [CHEMBL222988] | 4.68 |
| CC(=O)C(=O)c1ccccc1 [CHEMBL192258] | 5.28 |
| Cc1ccc(C(=O)C(=O)c2ccc(Cl)cc2)cc1 [CHEMBL192252] | 6.80 |
| O=C(C(=O)c1ccccc1Cl)c1ccccc1Cl [CHEMBL365392] | 5.78 |
| COc1cc(NCN2C(=O)C(=O)c3ccccc32)cc(OC)c1OC [CHEMBL221362] | 4.71 |
| O=C(C(=O)c1ccc(Cl)cc1)c1ccccc1 [CHEMBL192180] | 7.43 |
| O=C1C(=O)N(CCBr)c2ccccc21 [CHEMBL223000] | 6.54 |
| O=C1C(=O)N(CNc2ccc(Cl)cc2)c2ccccc21 [CHEMBL222712] | 6.21 |
| C[C@H]1COC2=C1C(=O)C(=O)c1c2ccc2c1CCCC2(C)C [CRYPTOTANSHINONE] | 6.26 |
| Cc1ccc(C(=O)C(=O)c2ccccc2)cc1[N+](=O)[O-] [CHEMBL191847] | 6.65 |
| CCCCCCCCSCC(=O)C(F)(F)F [CHEMBL89506] | 7.01 |
| CCCCCCCCCCC(=O)C(F)(F)F [CHEMBL86668] | 7.11 |
| O=C1Nc2ccc(Br)cc2C1=O [CHEMBL115897] | 4.50 |
| Cc1ccc(C(=O)C(=O)c2ccccc2)cc1C [CHEMBL193140] | 7.10 |

| SMILES | pKi |
| --- | --- |
| O=C1C(=O)c2cccc3c2N(CCC3)C1=O [CHEMBL235290] | 5.27 |
| O=C1C(=O)c2ccc([N+](=O)[O-])c3c([N+](=O)[O-])ccc1c23 [CHEMBL235289] | 6.24 |
| Cc1ccc(C(=O)C(=O)c2ccc(C)cc2)cc1 [CHEMBL192625] | 6.27 |
| O=C(C(=O)c1ccc2ccccc2c1)c1ccc2ccccc2c1 [CHEMBL189162] | 6.59 |
| O=C(CSCCc1ccccc1)C(F)(F)F [CHEMBL460809] | 7.20 |
| CCCCCCCCC(=O)C(=O)CCCCCCCC [CHEMBL1812859] | 9.08 |
| O=S(=O)(Nc1ccc(NS(=O)(=O)c2ccc(Cl)cc2)cc1)c1ccc(Cl)cc1 [CHEMBL254426] | 4.86 |
| O=C(O)[C@H]1O[C@@H](OC(=O)[C@H](c2ccccc2Cl)N2CCc3sccc3C2)[C@H](O)[C@@H](O)[C@@H]1O [CHEMBL3526940] | 4.61 |
| O=C(c1ccccc1)C(O)c1ccccc1 (centres unmarked) [BENZOIN] | 4.52 |
| CC(C)(C)C1=CC(=O)C(=O)C(C(C)(C)C)=C1 [CHEMBL365161] | 7.05 |
| O=C(Cc1ccccc1)C(=O)Cc1ccccc1 [CHEMBL1812850] | 5.51 |
| CCCCCCC(=O)C(=O)c1ccccc1 [CHEMBL1812864] | 8.66 |
| O=C1C(Cl)=C(Cl)C(=O)C(Cl)=C1Cl [CHLORANIL] | 7.08 |
| O=C(C(=O)c1ccsc1)c1ccsc1 [CHEMBL372716] | 5.98 |
| O=C(Nc1cccc(C(=O)C(=O)c2ccccn2)c1)c1ccc(F)c(F)c1 [CHEMBL1630811] | 5.91 |
| O=C(Cc1ccccc1)C(=O)C(Br)c1ccccc1 (centres unmarked) [CHEMBL1812852] | 5.58 |
| O=C(C(=O)c1cccs1)c1cccs1 [CHEMBL365445] | 6.36 |
| O=C(C(=O)c1c(Cl)c(Cl)c(Cl)c(Cl)c1Cl)c1c(F)c(F)c(F)c(F)c1F [CHEMBL195713] | 5.77 |
| O=C(C(=O)c1ccccn1)c1cccc(NC(=O)c2ccc(Cl)cc2Cl)c1 [CHEMBL1630808] | 6.55 |
| CCCCCC(=O)C(=O)CCCCC [CHEMBL1812856] | 8.52 |
| COc1cccc(C(=O)C(=O)c2cccc(OC)c2)c1 [CHEMBL435109] | 5.81 |
| O=C(C(=O)c1ccccn1)c1ccccn1 [CHEMBL373345] | 6.61 |

| SMILES | pKi |
| --- | --- |
| CCCCCCCCCCS(=O)(=O)CC(O)(O)C(F)(F)F [CHEMBL467451] | 6.40 |
| O=C(Nc1cccc(C(=O)C(=O)c2ccccn2)c1)c1ccc(F)cc1 [CHEMBL1630816] | 6.42 |
| CCCC(=O)C(=O)CCC [CHEMBL1812854] | 5.09 |
| CCCCC(=O)C(C)=O [CHEMBL364588] | 4.77 |
| O=C(C(=O)c1ccc(F)cc1)c1ccc(F)cc1 [CHEMBL192410] | 6.64 |
| O=C1C(=O)N2CCCc3cccc1c32 [CHEMBL395654] | 5.81 |
| CCCC(=O)C(=O)c1ccccc1 [CHEMBL1812861] | 6.99 |
| COC(OC)(C(=O)c1ccccc1)c1ccccc1 [CHEMBL364734] | 4.82 |
| O=C1Nc2c(Cl)ccc(Cl)c2C1=O [CHEMBL223039] | 6.23 |
| CCCCCCCCCCSCC(=O)C(F)(F)F [CHEMBL270374] | 7.18 |
| O=C1Nc2cc(Cl)cc(Cl)c2C1=O [CHEMBL385800] | 6.05 |
| O=C1C(=O)N(Cc2ccc(Cc3ccc(CN4C(=O)C(=O)c5ccccc54)cc3)cc2)c2ccccc21 [CHEMBL222752] | 8.10 |
| O=C1C(=O)c2cccnc2-c2ncccc21 [CHEMBL235504] | 5.27 |
| CCCCC(=O)C(=O)CCCC [CHEMBL1812855] | 7.33 |
| O=C1C(=O)c2cccc3cccc1c23 [ACENAPHTHOQUINONE] | 7.51 |
| CCCCSCC(=O)C(F)(F)F [CHEMBL402615] | 6.40 |
| O=C(C(=O)c1ccc([N+](=O)[O-])cc1)c1ccccc1 [CHEMBL192589] | 6.67 |
| O=C(C(=O)c1cc(Br)cs1)c1cc(Br)cs1 [CHEMBL190672] | 7.68 |
| COc1ccc(C(=O)C(=O)c2ccccc2Cl)cc1OC [CHEMBL191822] | 5.48 |
